Entries after “also recorded” stand apart in the source; their conditions may differ.
Legend:
[1] = Pathological changes in subcutaneous muscle layer after injection (H&E); type: in vivo, nude mice; parameters: key: 0=absent; 1=mild; 2=moderate; 3=severe; conditions: 5 mg pH 8.4 5-FU near the tumor; 24 hours; degeneration, necrosis, inflammation, fibrosis
Protocol: To observe pathological changes in the surrounding tissue after injecting 5 mg of pH 8.4 5-FU near the tumor, the drug was locally administered to nude mice. After 24 hours, tissues, including muscle layers, were collected and subjected to H&E staining to examine degeneration, necrosis, inflammation, and fibrosis in the muscle layer. The extent of each pathological change was scored as follows: 0=absent, 1=mild, 2=moderate, 3=severe, and the results are shown in FIG. 10A and FIG. 10B. FIG. 10A presents observations at 40× magnification, while FIG. 10B presents observations at 100× magnification.

VEGF = VEGF immunohistochemical staining of gastric tumor mass after local injection; conditions: one week after injection
CD31 = CD31 immunohistochemical staining of gastric tumor mass after local injection; conditions: one week after injection
TSP-1 protein = experiment: Western blot of TSP-1 protein expression in HUVEC; type: cell-based, human; conditions: HUVECs; prolonged exposure and higher 5-FU concentrations; FIG. 3
Protocol: Western blot analysis was conducted to confirm the expression of TSP-1 protein in the HUVEC (human umbilical vein endothelial cell) cell line.
HUVECs cultured in petri dishes were lysed using a buffer containing 50 mM Tris (pH 8.0), 150 mM NaCl, 1% Nonidet P-40, 0.5% sodium deoxycholate (SDC), 0.1% sodium dodecyl sulfate (SDS), and 1× protease inhibitor cocktail. The lysates were incubated on ice for 30 minutes, followed by centrifugation at 14,000 g for 10 minutes to collect the supernatant.
Protein quantification was performed using a bicinchoninic acid (BCA) protein assay kit (Pierce Chemical, Rockford, IL, USA). A total of 30 μg of protein was subjected to electrophoresis on a 10% SDS-polyacrylamide gel and subsequently transferred onto a nitrocellulose membrane. The membrane was blocked with blocking milk for 1 hour, then incubated with the same TSP-1 antibody used for immunostaining at room temperature for 1 hour. After three washes with Tris buffer containing 0.1% Tween 20 at 15-minute intervals, the membrane was incubated with a secondary antibody specific to the primary antibody at room temperature for 1 hour. The detection was carried out using a chemiluminescent substrate (Amersham Life Science, Arlington Heights, IL, USA).
Protein extracted from HUVECs was used as a positive control.

HUVECs [2] = experiment: LDH release assay in HUVECs; type: cell-based, human; conditions: 1 mM, 5 mM and 10 mM 5-FU, P<0.05, FIG. 4
Protocol: To investigate whether the administration of 5-fluorouracil (5-FU) enhances apoptosis in endothelial cells, an LDH release assay was conducted in human umbilical vein endothelial cells (HUVECs). Cytotoxicity was assessed based on the amount of lactate dehydrogenase (LDH) released due to cell membrane damage. The released LDH was quantified using an LDH assay kit (EZ-LDH1000; DoGenBio, Seoul, Korea) according to the manufacturer's protocol.
HUVECs (5×10^4 cells/well) were seeded in a 96-well polystyrene plate and incubated at 37° C. for 24 hours. LDH substrate was added to each well, followed by an additional incubation at 37° C. for 10 minutes. The plate was centrifuged at 600 g for 5 minutes. A 10-μL aliquot of the supernatant was transferred from the culture plate wells to an analysis plate. Subsequently, 100 μL of LDH reaction mixture reagent was added to the supernatant in each well of the analysis plate. After a 30-minute reaction, absorbance was measured at 450 nm using a microplate reader (Model 680; Bio-Rad). The cytotoxicity of 5-FU on HUVECs was determined based on the amount of LDH released.

HUVECs [3] = experiment: MTS cell proliferation assay, 5-FU at different pH; type: cell-based, human; conditions: 5 μM 5-FU, pH 6.4, 7.4, 8.4, 9.0, FIG. 5
Protocol: To evaluate the cytotoxic effect of 5-fluorouracil (5-FU) in human umbilical vein endothelial cells (HUVECs) under different pH conditions, an MTS cell proliferation assay was performed. The cytotoxicity of 5 μM 5-FU at various pH levels in HUVECs was assessed using the CellTiter 96 AQueous One Solution Cell Proliferation Assay (Promega Corp., Madison, WI, USA).
HUVECs were seeded in a 96-well plate at a density of 5×10^3 cells/well and incubated for 24 hours. Subsequently, the cells were cultured for an additional 24 hours in Dulbecco's Modified Eagle's Medium (DMEM) containing 5-FU at different pH conditions (pH 6.4, 7.4, 8.4, and 9.0). Following the incubation, the cells were washed twice with phosphate-buffered saline (PBS), after which 100 μL of fresh DMEM growth medium was added, followed by an additional 48-hour incubation. The medium was then replaced with 100 μL of fresh DMEM growth medium, and 20 μL of 3-(4,5-dimethylthiazol-2-yl)-5-(3-carboxymethoxyphenyl)-2-(4-sulfophenyl)-2H-tetrazolium (MTS) solution (Promega Corp., Madison, WI, USA) was added. After an additional 2-hour incubation, the absorbance was measured at 490 nm using a microplate reader (Model 680, BIO-RAD; Spark, TECAN, CA, USA).

HUVECs [4] = conditions: various concentrations of L-NMMA, FIG. 11
Protocol: HUVECs were seeded at a density of 5×10^3 cells/well in a 96-well plate and incubated for 24 hours. Subsequently, the cells were incubated in DMEM medium containing various concentrations of L-NMMA for 24 hours. The cells were then washed twice with PBS, followed by the addition of 100 μL of fresh growth DMEM medium, and incubated for an additional 48 hours. The medium was replaced with 100 μL of fresh growth DMEM medium, after which 20 μL of 3-(4,5-dimethylthiazol-2-yl)-5-(3-carboxymethoxyphenyl)-2-(4-sulfophenyl)-2H-tetrazolium (MTS) was added. After an additional 2-hour incubation, absorbance at 490 nm was measured using a BIO-RAD Model 680 microplate reader (Spark, TECAN, CA, USA).

[5] = system: human gastric cancer cells; experiment: Human gastric cancer xenograft, alkaline 5-FU injected adjacent to tumor; type: in vivo, nude mice; conditions: 5 mg 5-FU pH 8.4, adjacent to tumor, three times at one-week intervals; P<0.05
Protocol: The animals used in the experiment were six male nude mice (Crj: BALB/c-nu/nu mice, male) aged five weeks and weighing approximately 30 grams, purchased from Orient. The mice were subjected to a one-week acclimation period in the laboratory before use. Each nude mouse was subcutaneously xenografted with 5×10^6 human gastric cancer cells suspended in 100 μL of PBS on the dorsal subcutaneous layer. The tumor size was periodically measured, and when it reached a diameter of 1 cm, the drug administration experiment was conducted.
The experimental animals were divided into two groups. One group served as the control group, receiving only physiological saline, while the other group was administered 5 mg of 5-FU at pH 8.4. The drug was injected 0.2 cc adjacent to the tumor three times at one-week intervals. After one month, the major and minor axes of the tumors growing on the dorsal epidermis were measured.

[6] = system: human gastric cancer cells; experiment: Human gastric cancer xenograft, bevacizumab; type: in vivo, nude mice
Protocol: The animals used in the experiment were three male nude mice (Crj: BALB/c-nu/nu, male), each weighing approximately 30 g and five weeks old, produced by Orient. The mice underwent a one-week acclimatization period in the laboratory before use. Human gastric cancer cells (5×10^6 cells/100 μL in PBS) were xenografted into the subcutaneous fat layer on the dorsal side of each nude mouse. The tumor size was measured periodically, and drug administration was initiated when the tumor reached a diameter of 1 cm.
The experimental animals were administered 1 mg of bevacizumab by injecting 0.2 cc adjacent to the tumor three times at one-week intervals.

[7] = 5 mg 5-FU at base of tumor, relative to total tissue area

Compound: O=c1[nH]cc(F)c(=O)[nH]1 [5-FU, 5-fluorouracil]
- pathological changes in subcutaneous muscle layer at injection site (score) [1]: 0
- Immunopositive area (VEGF) (VEGF; 5 mg 5-FU at base of tumor): 46077.917 μm^2
- Immuno-positive area (%) (VEGF) (VEGF; [7]): 0.10%
- stained area of VEGF compared to control group (VEGF; 5 mg 5-FU): smaller
- Immunopositive area (CD31) (CD31; 5 mg 5-FU at base of tumor): 257079.525 μm^2
- Immuno-positive area (%) (CD31) (CD31; [7]): 0.54%
- stained area (ratio) of CD31 compared to control group (CD31; 5 mg 5-FU): lower; also recorded: smaller
- distribution of necrotic tissue compared to control group (CD31; 5 mg 5-FU, tumor mass): increased
- TSP-1 expression (TSP-1 protein): increased
- amount of LDH released (HUVECs [2]): increased in a time-dependent manner
- cytotoxic effect according to pH (HUVECs [3]): significantly greater toxicity under alkaline conditions compared to neutral or acidic 5-FU

Compound: CNC(=N)NCCC[C@H](N)C(=O)O [L-NMMA, NG-Monomethyl-L-arginine]
- cell viability, L-NMMA alone (HUVECs [4]): reduction in cell viability

Compound: O=c1[nH]cc(F)c(=O)[nH]1 [alkaline 5-FU, 5-fluorouracil]
- tumor size compared to control group that received PBS [5]: reduced
- tumor size four weeks after drug administration compared to before injection [5]: decreased

Compound: bevacizumab: recombinant humanized monoclonal antibody designed to inhibit vascular endothelial growth factor (VEGF)
- tumor size four weeks after drug administration compared to before injection ([6]; 1 mg bevacizumab adjacent to tumor, three times at one-week intervals, P>0.05): remained nearly unchanged
- tumor size in later follow-up ([6]; 1 mg bevacizumab, months after the four-week reading): did not change for the following two months and began to increase in the third month
